According to patent publication US9034884B2, “Heterocyclic-substituted pyrrolopyridines and pyrrolopyrimidines as JAK inhibitors” (Incyte Corporation, priority 2010, dated 2015):

Assays:
[1] = target: T1, JAK2 (a.a. 828-1132) catalytic domain (Homo sapiens, UniProt O60674); experiment: In vitro JAK kinase assay (HTRF, phosphorylation of biotinylated peptide), JAK2; assay type: biochemical; details: ATP 1 mM
T1 construct: JAK2 (a.a. 828-1132); His tag (N); made in house; host or cells: insect cells (baculovirus)
T1 sequence (O60674 828-1132): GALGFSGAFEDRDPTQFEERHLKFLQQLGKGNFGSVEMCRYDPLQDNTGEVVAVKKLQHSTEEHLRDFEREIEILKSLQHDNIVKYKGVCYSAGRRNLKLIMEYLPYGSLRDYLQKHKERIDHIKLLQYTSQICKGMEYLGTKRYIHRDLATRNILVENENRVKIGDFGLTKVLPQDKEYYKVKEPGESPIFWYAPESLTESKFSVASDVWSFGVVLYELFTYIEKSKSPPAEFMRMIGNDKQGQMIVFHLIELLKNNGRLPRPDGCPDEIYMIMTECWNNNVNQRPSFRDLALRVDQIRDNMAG
Description: Compounds herein were tested for inhibitory activity of JAK targets according to the following in vitro assay described in Park et al., Analytical Biochemistry 1999, 269, 94-104. The catalytic domains of human JAK1 (a.a. 837-1142) and JAK2 (a.a. 828-1132) with an N-terminal His tag were expressed using baculovirus in insect cells and purified. The catalytic activity of JAK1 and JAK2 was assayed by measuring the phosphorylation of a biotinylated peptide. The phosphorylated peptide was detected by homogenous time resolved fluorescence (HTRF). […] For the 1 mM IC50 measurements, ATP concentration in the reactions was 1 mM. Reactions were carried out at room temperature for 1 hour and then stopped with 20 μL 45 mM EDTA, 300 nM SA-APC, 6 nM Eu-Py20 in assay buffer (Perkin Elmer, Boston, Mass.). Binding to the Europium labeled antibody took place for 40 minutes and HTRF signal was measured on a Fusion plate reader (Perkin Elmer, Boston, Mass.). See Tables A and B for data related to compounds of the invention (at 1 mM). Data is indicated as ranges, wherein “+” is less than 5 nM; “++” is 5 nM to 25 nM; “+++” is greater than 25 nM to 100 nM; and “++++” is greater than 100 nM.

[2] = target: T2, human JAK1 (a.a. 837-1142) catalytic domain (Homo sapiens, UniProt P23458); experiment: In vitro JAK kinase assay (HTRF, phosphorylation of biotinylated peptide), JAK1; assay type: biochemical; details: ATP 1 mM
T2 construct: human JAK1 (a.a. 837-1142); His tag (N); made in house; host or cells: insect cells (baculovirus)
T2 sequence (P23458 849-1154): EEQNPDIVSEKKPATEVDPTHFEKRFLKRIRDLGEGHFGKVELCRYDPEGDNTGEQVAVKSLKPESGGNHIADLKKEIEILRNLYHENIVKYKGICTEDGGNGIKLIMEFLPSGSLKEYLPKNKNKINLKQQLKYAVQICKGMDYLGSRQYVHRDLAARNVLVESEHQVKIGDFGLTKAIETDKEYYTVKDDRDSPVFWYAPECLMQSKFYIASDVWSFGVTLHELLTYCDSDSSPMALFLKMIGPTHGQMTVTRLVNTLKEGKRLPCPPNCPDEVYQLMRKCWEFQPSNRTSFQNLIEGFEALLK
Description: Compounds herein were tested for inhibitory activity of JAK targets according to the following in vitro assay described in Park et al., Analytical Biochemistry 1999, 269, 94-104. The catalytic domains of human JAK1 (a.a. 837-1142) and JAK2 (a.a. 828-1132) with an N-terminal His tag were expressed using baculovirus in insect cells and purified. The catalytic activity of JAK1 and JAK2 was assayed by measuring the phosphorylation of a biotinylated peptide. The phosphorylated peptide was detected by homogenous time resolved fluorescence (HTRF). […] For the 1 mM IC50 measurements, ATP concentration in the reactions was 1 mM. Reactions were carried out at room temperature for 1 hour and then stopped with 20 μL 45 mM EDTA, 300 nM SA-APC, 6 nM Eu-Py20 in assay buffer (Perkin Elmer, Boston, Mass.). Binding to the Europium labeled antibody took place for 40 minutes and HTRF signal was measured on a Fusion plate reader (Perkin Elmer, Boston, Mass.). […] Data is indicated as ranges, wherein “+” is less than 5 nM; “++” is 5 nM to 25 nM; “+++” is greater than 25 nM to 100 nM; and “++++” is greater than 100 nM.

| Compound | IC50 ([1]; Table A) | IC50 ([2]; Table B) | IC50 ([1]; Table B) | IC50 ([2]; Table A) |
| --- | --- | --- | --- | --- |
| CN(C)Cc1cc(F)cc(OC2CCN(CC(CC#N)n3cc(-c4ncnc5[nH]ccc45)cn3)CC2)c1 (single isomer, unassigned) [Example 20 Enantiomer 2, 4-(4-{3-[(Dimethylamino)methyl]-5-fluorophenoxy}piperidin-1-yl)-3-[4-(7H-pyrrolo[2,3-d]pyrimidin-4-yl)-1H-pyrazol-1-yl]butanenitrile (chiral)] | 5 to 25 nM | – | – | – |
| N#CCC(CN1CCC(Oc2cc(F)cc(C#N)c2)C(F)C1)n1cc(-c2ncnc3[nH]ccc23)cn1 (single isomer, unassigned) [Example 31 diastereomer 1, 3-[(1-{3-Cyano-2-[4-(7H-pyrrolo[2,3-d]pyrimidin-4-yl)-1H-pyrazol-1-yl]propyl}-3-fluoropiperidin-4-yl)oxy]-5-fluorobenzonitrile (two diastereomers)] | – | 5 to 25 nM | 25 to 100 nM | – |
| N#CCC(CN1CCC(Oc2cc(F)cc(C#N)c2)C(F)C1)n1cc(-c2ncnc3[nH]ccc23)cn1 (single isomer, unassigned) [Example 31 diastereomer 2, 3-[(1-{3-Cyano-2-[4-(7H-pyrrolo[2,3-d]pyrimidin-4-yl)-1H-pyrazol-1-yl]propyl}-3-fluoropiperidin-4-yl)oxy]-5-fluorobenzonitrile (two diastereomers)] | – | < 5 nM | 25 to 100 nM | – |
| C[C@@H]1CCCN1Cc1cc(F)cc(OC2CCN(CC(CC#N)n3cc(-c4ncnc5[nH]ccc45)cn3)CC2F)c1 (single isomer, unassigned) [Example 32 diastereomer 2] | – | < 5 nM | 5 to 25 nM | – |
| C[C@H]1CCCN1Cc1cc(F)cc(OC2CCN(CC(CC#N)n3cc(-c4ncnc5[nH]ccc45)cn3)CC2F)c1 (single isomer, unassigned) [Example 33 diastereomer 2] | – | < 5 nM | 25 to 100 nM | – |
| N#CCC(CN1CCC(Oc2cc(F)cc(F)c2)CC1)n1cc(-c2ncnc3[nH]ccc23)cn1 (stereo not shown) [Example 1, 4-[4-(3,5-Difluorophenoxy)piperidin-1-yl]-3-[4-(7H-pyrrolo[2,3-d]pyrimidin-4-yl)-1H-pyrazol-1-yl]butanenitrile tris(trifluoroacetate)] | 25 to 100 nM | – | – | 5 to 25 nM |
| N#CCC(CN1CCC(Oc2cc(F)cc(Cl)c2)CC1)n1cc(-c2ncnc3[nH]ccc23)cn1 (stereo not shown) [Example 2] | 25 to 100 nM | – | – | < 5 nM |
| N#CCC(CN1CCC(Oc2cc(F)cc(C(F)(F)F)c2)CC1)n1cc(-c2ncnc3[nH]ccc23)cn1 (stereo not shown) [Example 3, 4-{4-[3-Fluoro-5-(trifluoromethyl)phenoxy]piperidin-1-yl}-3-[4-(7H-pyrrolo[2,3-d]pyrimidin-4-yl)-1H-pyrazol-1-yl]butanenitrile tris(trifluoroacetate)] | > 100 nM | – | – | 5 to 25 nM |
| N#CCC(CN1CCC(Oc2cc(F)c(F)c(F)c2)CC1)n1cc(-c2ncnc3[nH]ccc23)cn1 (stereo not shown) [Example 4, 3-[4-(7H-Pyrrolo[2,3-d]pyrimidin-4-yl)-1H-pyrazol-1-yl]-4-[4-(3,4,5-trifluorophenoxy)piperidin-1-yl]butanenitrile tris(trifluoroacetate)] | 25 to 100 nM | – | – | 5 to 25 nM |
| N#CCC(CN1CCC(Oc2cc(F)cc(F)c2F)CC1)n1cc(-c2ncnc3[nH]ccc23)cn1 (stereo not shown) [Example 5, 3-[4-(7H-Pyrrolo[2,3-d]pyrimidin-4-yl)-1H-pyrazol-1-yl]-4-[4-(2,3,5-trifluorophenoxy)piperidin-1-yl]butanenitrile tris(trifluoroacetate)] | 5 to 25 nM | – | – | < 5 nM |
| N#CCC(CN1CCC(Oc2cc(F)cc(C#N)c2)CC1)n1cc(-c2ncnc3[nH]ccc23)cn1 (stereo not shown) [Example 6, 3-[(1-{3-Cyano-2-[4-(7H-pyrrolo[2,3-d]pyrimidin-4-yl)-1H-pyrazol-1-yl]propyl}piperidin-4-yl)oxy]-5-fluorobenzonitrile tris(trifluoroacetate)] | 25 to 100 nM | – | – | < 5 nM |
| CNC(=O)c1cc(F)cc(OC2CCN(CC(CC#N)n3cc(-c4ncnc5[nH]ccc45)cn3)CC2)c1 (stereo not shown) [Example 7, 3-[(1-{3-Cyano-2-[4-(7H-pyrrolo[2,3-d]pyrimidin-4-yl)-1H-pyrazol-1-yl]propyl}piperidin-4-yl)oxy]-5-fluoro-N-methylbenzamide tris(trifluoroacetate)] | 5 to 25 nM | – | – | < 5 nM |
| CN(C)C(=O)c1cc(F)cc(OC2CCN(CC(CC#N)n3cc(-c4ncnc5[nH]ccc45)cn3)CC2)c1 (stereo not shown) [Example 8, 3-[(1-{3-Cyano-2-[4-(7H-pyrrolo[2,3-d]pyrimidin-4-yl)-1H-pyrazol-1-yl]propyl}piperidin-4-yl)oxy]-5-fluoro-N,N-dimethylbenzamide tris(trifluoroacetate)] | 5 to 25 nM | – | – | < 5 nM |
| CCNC(=O)c1cc(F)cc(OC2CCN(CC(CC#N)n3cc(-c4ncnc5[nH]ccc45)cn3)CC2)c1 (stereo not shown) [Example 9, 3-[(1-{3-Cyano-2-[4-(7H-pyrrolo[2,3-d]pyrimidin-4-yl)-1H-pyrazol-1-yl]propyl}piperidin-4-yl)oxy]-N-ethyl-5-fluorobenzamide] | 5 to 25 nM | – | – | < 5 nM |
| N#CCC(CN1CCC(Oc2cc(F)cc(C(=O)NC3CC3)c2)CC1)n1cc(-c2ncnc3[nH]ccc23)cn1 (stereo not shown) [Example 10, 3-[(1-{3-Cyano-2-[4-(7H-pyrrolo[2,3-d]pyrimidin-4-yl)-1H-pyrazol-1-yl]propyl}piperidin-4-yl)oxy]-N-cyclopropyl-5-fluorobenzamide] | 5 to 25 nM | – | – | < 5 nM |
| CC(C)NC(=O)c1cc(F)cc(OC2CCN(CC(CC#N)n3cc(-c4ncnc5[nH]ccc45)cn3)CC2)c1 (stereo not shown) [Example 11, 3-[(1-{3-Cyano-2-[4-(7H-pyrrolo[2,3-d]pyrimidin-4-yl)-1H-pyrazol-1-yl]propyl}piperidin-4-yl)oxy]-5-fluoro-N-isopropylbenzamide tris(trifluoroacetate)] | 5 to 25 nM | – | – | < 5 nM |
| N#CCCNC(=O)c1cc(F)cc(OC2CCN(CC(CC#N)n3cc(-c4ncnc5[nH]ccc45)cn3)CC2)c1 (stereo not shown) [Example 12, N-(2-Cyanoethyl)-3-[(1-{3-cyano-2-[4-(7H-pyrrolo[2,3-d]pyrimidin-4-yl)-1H-pyrazol-1-yl]propyl}piperidin-4-yl)oxy]-5-fluorobenzamide tris(trifluoroacetate)] | 5 to 25 nM | – | – | < 5 nM |
| N#CCC(CN1CCC(Oc2cc(F)cc(C(=O)N3CCCC3)c2)CC1)n1cc(-c2ncnc3[nH]ccc23)cn1 (stereo not shown) [Example 13, 4-{4-[3-Fluoro-5-(pyrrolidin-1-ylcarbonyl)phenoxy]piperidin-1-yl}-3-[4-(7H-pyrrolo[2,3-d]pyrimidin-4-yl)-1H-pyrazol-1-yl]butanenitrile tris(trifluoroacetate)] | 5 to 25 nM | – | – | < 5 nM |
| N#CCC(CN1CCC(Oc2cc(F)cc(C(=O)NCCC(N)=O)c2)CC1)n1cc(-c2ncnc3[nH]ccc23)cn1 (stereo not shown) [Example 14, N-(3-Amino-3-oxopropyl)-3-[1(1-{3-cyano-2-[4-(7H-pyrrolo[2,3-d]pyrimidin-4-yl)-1H-pyrazol-1-yl]propyl}piperidin-4-yl)oxy]-5-fluorobenzamide tris(trifluoroacetate)] | 5 to 25 nM | – | – | < 5 nM |
| CC(C)(C)NC(=O)c1cc(F)cc(OC2CCN(CC(CC#N)n3cc(-c4ncnc5[nH]ccc45)cn3)CC2)c1 (stereo not shown) [Example 15, N-(tert-Butyl)-3-[(1-{3-cyano-2-[4-(7H-pyrrolo[2,3-d]pyrimidin-4-yl)-1H-pyrazol-1-yl]propyl}piperidin-4-yl)oxy]-5-fluorobenzamide tris(trifluoroacetate)] | < 5 nM | – | – | < 5 nM |
| N#CCC(CN1CCC(Oc2cc(F)cc(C(=O)NCCN3CCOCC3)c2)CC1)n1cc(-c2ncnc3[nH]ccc23)cn1 (stereo not shown) [Example 16, 3-[(1-{3-Cyano-2-[4-(7H-pyrrolo[2,3-d]pyrimidin-4-yl)-1H-pyrazol-1-yl]propyl}piperidin-4-yl)oxy]-5-fluoro-N-(2-morpholin-4-ylethyl)benzamide tris(trifluoroacetate)] | 5 to 25 nM | – | – | < 5 nM |
| N#CCC(CN1CCC(Oc2cc(F)cc(C(=O)N3CCCCC3)c2)CC1)n1cc(-c2ncnc3[nH]ccc23)cn1 (stereo not shown) [Example 17, 4-{4-[3-Fluoro-5-(piperidin-1-ylcarbonyl)phenoxy]piperidin-1-yl}-3-[4-(7H-pyrrolo[2,3-d]pyrimidin-4-yl)-1H-pyrazol-1-yl]butanenitrile] | 5 to 25 nM | – | – | < 5 nM |
